Results taken from patent publication US12383533B2 (Frost Biologic, Inc., priority 2014, dated 2025).

Tests used:
PC3 cells = assay: Cell Viability Assay (ATPlite 1step), PC3; format: cell-based; details: Homo sapiens, PC-3, 72 hours; for percent inhibition of cell viability at 4 µM: PC3, 4 uM compound, read-out: Cell Viability % inhibition PC3 (4 uM Cpd); for percent inhibition of cell viability at 20 µM: PC3, 20 uM compound, read-out: Cell Viability % inhibition PC3 (20 uM Cpd)
Experimental: (§1) Cell Viability Assay Protocol
(§2) Cells were trypsinized, counted, and re-seeded into a 384-well tissue culture plate at 1000 cells per well in […] media. Cells were incubated at 37° C. in an atmosphere of 5% CO2 for 24 hours. Experimental compounds, initially dissolved in DMSO and diluted further in media were added to the wells and incubated for 72 hours. Cell viability was measured using the ATPlite 1step Luminescence Detection Assay system (Perkin Elmer) as described in the Assay kit instructions.
(§3) Cell Culture Lines and Media: (1) A2780 cells were cultured in RPMI media with 10% FBS and 1% antibiotics. Cells were typically split every 3-5 days at a 1:10 dilution; (2) PC3 cells were cultured in RPMI media with 10% FBS and 1% antibiotics. Cells were typically split every 3-5 days at a 1:4 dilution; (3) MCF-7 cells were grown in K-12F media with 10% FBS and 1% antibiotics. Cells were typically split every 3-5 days at a 1:10 dilution.

A2780 cells = assay: Cell Viability Assay (ATPlite 1step), A2780; format: cell-based; details: Homo sapiens, 72 hours; for percent inhibition of cell viability at 4 µM: A2780, 4 uM compound, read-out: Cell Viability % inhibition A2780 (4 uM Cpd); for percent inhibition of cell viability at 20 µM: A2780, 20 uM compound, read-out: Cell Viability % inhibition A2780 (20 uM Cpd)
Experimental: as §1, §2, §3

porcine neuronal tubulin = assay: Tubulin Polymerization Assay; format: biochemical; details: porcine tubulin 2.0 mg/ml, 37° C., fluorescence; read-out: IC50 (tubulin polymerization, from Vmax)
Description: Tubulin Polymerization Assay
The Tubulin Polymerization Assay uses porcine neuronal tubulin and measurements are based on fluorescence enhancement due to the incorporation of a fluorescent reporter into microtubules as polymerization occurs. The assay generates a polymerization curve representing the three phases of microtubule formation (nucleation, growth and equilibrium). IC50 values for tested compounds can be generated from the observed polymerization curves.
Procedure: All compounds dilutions (in DMSO) were prepared prior to the following steps. A Molecular Devices M2 plate reader was set to 37° C. Once the internal temperature of the plate reader reached 37° C. a 96 well plate (Corning Costar, at. #3686) was placed in the fluorimeter and allowed to warm to 37° C. for 30 minutes. A total of 10 mg of porcine tubulin was resuspended in […] of Polymerization Buffer [Buffer 1 (80 mM PIPES pH 6.9, 2.0 mM MgCl2, 0.5 mM EGTA, 1.0 mM GTP and 10 μM fluorescent reporter) supplemented with 20% glycerol] to generate a 2.0 mg/ml tubulin stock and this was kept on ice. The 50× compound stocks in 100% DMSO were spotted 1 μl/well in duplicate into the wells of the 96-well plate at 37° C. and allowed to re-warm for 5 minutes at 37° C. During this incubation the 2.0 mg/ml tubulin stock was placed in a disposable plastic trough and allowed to warm briefly at room temperature. To initiate the reaction, 50 μl/well of 2.0 mg/ml tubulin in Polymerization Buffer was added to each well using a multi-channel pipettor and the fluorescence measurements were started immediately.
The maximal velocity (Vmax) of tubulin polymerization was determined using linear regression of the averaged fluorescence data at each time point using GraphPad Prism 5.0 software. The Vmax determinations for each compound at each concentration were then normalized to reactions that contained DMSO (2% final concentration) but no test compounds. This converted the data to % Activity, which refers to the percent of the Vmax of an uninhibited reaction. The concentration response curves were then plotted as the % Activity versus the Log 10 of the compound concentration in micromolar and fit by non-linear regression to a 4-parameter sigmoidal dose-response equation using GraphPad Prism 5.0 software to determine the IC50 for each compound.

MCF-7 cells = assay: Cell Viability Assay (ATPlite 1step), MCF-7; format: cell-based; details: Homo sapiens, MCF7, 72 hours; for percent inhibition of cell viability at 4 µM: MCF-7, 4 uM compound, read-out: Cell Viability % inhibition MCF-7 (4 uM Cpd); for percent inhibition of cell viability at 20 µM: MCF-7, 20 uM compound, read-out: Cell Viability % inhibition MCF-7 (20 uM Cpd)
Experimental: as §1, §2, §3

IC50 (porcine neuronal tubulin) [nM]	Compound	percent inhibition of cell viability at 4 µM (PC3 cells) [%]	percent inhibition of cell viability at 20 µM (PC3 cells) [%]	percent inhibition of cell viability at 4 µM (A2780 cells) [%]	percent inhibition of cell viability at 20 µM (A2780 cells) [%]	percent inhibition of cell viability at 4 µM (MCF-7 cells) [%]	percent inhibition of cell viability at 20 µM (MCF-7 cells) [%]
890	Cc1ncc(C(=O)Nc2ccc(-c3cccc(C4CC4)c3)cn2)cn1 [Compound 23, N-[5-(3-cyclopropylphenyl)pyridin-2-yl]-2-methylpyrimidine-5-carboxamide]	53.7	66.2	71.5	80.3	–	–
–	O=C(Nc1ncc(-c2ccccc2)cn1)c1cncnc1 [Compound 12, N-(5-phenylpyrimidin-2-yl)pyrimidine-5-carboxamide]	59.7	69.2	82.7	91.3	53.7	69.8
300	Cc1ccc(C(=O)Nc2ccc(-c3cccc(C4COC4)c3)cn2)cn1 [Compound 44, 6-methyl-N-{5-[3-(oxetan-3-yl)phenyl]pyridin-2-yl}pyridine-3-carboxamide]	81.8	84.6	86.5	86.1	–	–
–	Cc1ncc(C(=O)Nc2ncc(-c3cccc(NC4CC4)c3)cc2F)cn1 [Compound 68, N-{5-[3-(cyclopropylamino)phenyl]-3-fluoropyridin-2-yl}-2-methylpyrimidine-5-carboxamide]	58.4	64.4	87.1	89	54.3	59.3
–	O=C(Nc1ccc(-c2ccco2)cn1)c1cncnc1 [Compound 20, N-[5-(furan-2-yl)pyridin-2-yl]pyrimidine-5-carboxamide]	59.9	69.4	84	91.1	56.3	61.2
–	Cc1ncc(C(=O)Nc2ccc(-c3cc(N4CCN(C)CC4)cc(S(=O)(=O)C4CC4)c3)cn2)cn1 [Compound 49, N-{5-[3-cyclopropylsulfonyl-5-(4-methylpiperazin-1-yl)phenyl]pyridin-2-yl}-2-methylpyrimidine-5-carboxamide]	19.4	39.7	16.9	59.5	28.1	48.3
–	Cc1ncc(C(=O)Nc2ccc(-c3cc(Cl)cc(N4CCN(C)CC4)c3)cn2)cn1 [Compound 47, N-{5-[3-chloro-5-(4-methylpiperazin-1-yl)phenyl]pyridin-2-yl}-2-methylpyrimidine-5-carboxamide]	63.2	78.6	88.7	95.5	40.6	64.6
–	Cc1ncc(C(=O)Nc2ccc(-c3csc(C)c3)cn2)cn1 [Compound 62, 2-methyl-N-[5-(5-methylthiophen-3-yl)pyridin-2-yl]pyrimidine-5-carboxamide]	54.8	65.1	85.2	89.9	59.4	67
320	Cc1ncc(C(=O)Nc2ccc(-c3cccc(NC4CC4)c3)cn2)cn1 [Compound 31, N-{5-[3-(cyclopropylamino)phenyl]pyridin-2-yl}-2-methylpyrimidine-5-carboxamide]	51.8	43.7	70.9	71.2	–	–
–	Cc1ncc(C(=O)Nc2ccc(-c3cc(NC4CC4)cc(N4CCN(C)CC4)c3)cn2)cn1 [Compound 51, N-{5-[3-cycopropylamino-5-(4-methylpiperazin-1-yl)phenyl]pyridin-2-yl}-2-methylpyrimidine-5-carboxamide]	17.3	65.7	6.8	76	22.9	49.5
–	Cc1ncc(C(=O)Nc2ncc(-c3cc(Cl)cc(N4CCNCC4)c3)cc2F)cn1 [Compound 54, N-{5-[3-chloro-5-(piperazin-1-yl)phenyl]-3-Fluoropyridin-2-yl}-2-methylpyrimidine-5-carboxamide]	0.2	34.8	-6.4	64.6	23.8	42.6
–	Cc1ncc(C(=O)Nc2ccc(-c3cc(NC4CC4)cc(N4CCN(C)CC4)c3)c(C)n2)cn1 [Compound 52, N-{5-[3-cyclopropylamino-5-(4-methylpiperazin-1-yl)phenyl]-6-methylpyridin-2-yl}-2-methylpyrimidine-5-carboxamide]	35	52.5	8	69.5	-1.6	22.2
200	CC[C@]1(O)C[C@@H]2CN(CCc3c([nH]c4ccccc34)[C@@](C(=O)OC)(c3cc4c(cc3OC)N(C)[C@H]3[C@@](O)(C(=O)OC)[C@H](OC(C)=O)[C@]5(CC)C=CCN6CC[C@]43[C@@H]65)C2)C1 [Vinblastine, reference compound]	–	–	–	–	–	–
–	O=C(Nc1ccc(-c2ccccn2)cn1)c1cncnc1 [Compound 15, N-(3,2′-bipyridin-6-yl)pyrimidine-5-carboxamide]	40.8	48.2	68.8	73.4	34.5	25.6
–	O=C(Nc1ccc(-c2cccnc2)cn1)c1cncnc1 [Compound 14, N-(3,3′-bipyridin-6-yl)pyrimidine-5-carboxamide]	23.9	43.3	51.2	71.4	19.1	30.3
–	O=C(Nc1ccc(-c2cccs2)cn1)c1cccnc1 [Compound 11, N-[5-(thiophen-2-yl)pyridin-2-yl]pyridine-3-carboxamide]	70	83.8	85	97.8	58.6	88.9
680	CC[C@]1(O)C[C@H]2CN(CCc3c([nH]c4ccccc34)[C@@](C(=O)OC)(c3cc4c(cc3OC)N(C=O)[C@H]3[C@@](O)(C(=O)OC)[C@H](OC(C)=O)[C@]5(CC)C=CCN6CC[C@]43[C@@H]65)C2)C1 [Vincristine, reference compound]	–	–	–	–	–	–
